# Reference: patent US20110281834A1, “Pharmaceutical Formulations for Iontophoretic Delivery of a Corticosteroid” (priority 2008, published 2011)
# Where two headings read alike, the source gives them in different places.
# Key:
# [1] = Solubility in solubilizer solutions (shaken overnight, supernatant by HPLC); format: physicochemical; details: for solubility: solubilizer solution, thermodynamic from solid, read-out: Solubility, Final conc
# Method: Triamcinolone acetonide is poorly ionized and has a poor solubility profile; to overcome this, individual as well as combinations of potential solubilizers were tested. TMCA (2.5 mg) was mixed into 1 mL of the individual components or mixtures of potential solubilizers and shaken overnight; drug was then added to all clear solutions which were then mixed overnight. The samples were then centrifuged and the supernatants analyzed by HPLC to determine drug solubility.
# DEX-P (100 mg) was mixed into 1 mL of the individual components or mixtures of potential solubilizers and shaken overnight. Additional drug (100 mg) was added to clear solutions and mixed overnight. The samples were then centrifuged and the supernatants analyzed by HPLC to determine drug solubility.
# [2] = Iontophoretic drug permeation through hairless rat skin in Franz diffusion cells; format: in vitro ADME
# Method: Full thickness abdominal skin freshly excised from sacrificed hairless rats was equilibrated in the receptor buffer and mounted on Franz diffusion cells (0.64 cm^2). The donor compartment (0.5 ml) contained corticosteroid in an appropriate buffer. […] For triamcinolone acetonide (TMCA), 3.5 mg/mL TMCA formulation (in 25% w/w PEG 400, 25% ETOH, 15% cremophor RH40, qs to 100% with citrate buffer pH 5.0) was used for the donor compartment. […] The receptor compartment for TMCA was citrate buffer with 20% ethanol. […] TMCA has no charge at pH 5 and was therefore delivered by anodal iontophoresis to utilize electroosmosis. […] For TMCA, the anode (Silver-Silver Chloride) was placed in the donor chamber along with drug solution and the cathode (Silver wire) was placed in the receptor chamber. Electric current (0.2 to 0.4 mA/cm^2) was applied using a custom current control device for up to 1 hr, after which experiments were either terminated or allowed to continue passively for various durations. Samples (0.3 ml) were taken from the receptor chamber at predetermined time points following iontophoresis and were replaced with the same amount of receptor buffer. The apparatus was maintained at 37° C. with constant stirring in both the donor and receptor compartments to maintain sink conditions. The samples were then analyzed by HPLC to measure drug permeation through skin. […] The mobile phase consisted of 75/25 ammonium acetate (5 mM) and acetonitrile. For TMCA, samples of receptor fluid (injection volume 20 uL, run time 8 min) were analyzed using the same HPLC system with a flow rate of 0.8 ml/min and UV detection at 237 nm. The mobile phase consisted of 70/30 methanol and water. […] Control passive experiments were conducted in the same way except for the application of electric current. Data were expressed as means±standard deviations. All experiments were performed in at least triplicate.
# Samples were removed periodically from the receptor and analyzed by HPLC.
# Samples were measured periodically from the receptor and analyzed by HPLC over 24 hrs.
# (§1) The effect of iontophoresis on the intradermal and transdermal permeation of TMCA using hairless rat skin in vitro was investigated using methods previously described. In addition, the amount of drug deposited in the stratum corneum and underlying skin after iontophoresis was quantified in vivo using tape stripping and skin extraction methods described previously. TMCA (3.5 mg/ml) was formulated in 15% cremophor RH40, 25% PEG 400 and 25% ethanol (95%), in citrate buffer pH 5.0. Anodal iontophoresis was performed for 1 h at 0.2 mA/cm^2.
# [3] = In vivo skin delivery: tape stripping (stratum corneum) and skin extraction (underlying skin); set-up: species or system hairless rat
# Text: After wiping excess drug off the skin using a moist kimwipe, pre-weighed tape strips were placed on the area exposed to the drug and made sure they adhered to the skin by rolling with a glass rod for 30 seconds. After rolling, the tape strips were held from one end with a pair of forceps and ripped off the skin very quickly. The first strip was discarded to remove the remnants of the drug on the skin. This process was continued with 30 strips to fully remove the stratum corneum and each strip analyzed for drug content by immersing in 1 mL extraction buffer for 1 hr under gentle stirring (150 rpm). […] All tape strip extracts were analyzed with HPLC. […] TEWL values were also recorded after every five strips.
# After tape stripping, the rats were euthanized and the underlying skin excised. Before proceeding for skin extraction studies, the weight of the excised skin piece was recorded. This excised skin was minced into small pieces and placed into glass vials. To this minced skin, 1 mL deionised water was added and shaken for 30 minutes on a shaker. To this 100 μL of 0.1% HCl was added and centrifuged. To the centrifuged sample 6 mL of methylene chloride was added and shaken for 30 minutes. The methylene chloride (organic) extract was then evaporated under nitrogen. The methylene chloride addition and evaporation step was repeated and combined with the previous extraction. After evaporation, the samples were reconstituted using 1 mL of acetonitrile, filtered and filled in HPLC vials and analyzed accordingly. For TMCA, 30/70 chloroform and methanol was used as the extraction solvent. […] The measured drug levels from the skin were corrected for recovery.
# as §1
# Hairless rats (n=4 per group) were anesthetized with ketamine (75 mg/kg) and xylazine (10 mg/kg) administered intraperitoneally. Once the rats were anaesthetized, the abdominal area was wiped with water and alcohol swabs. The cartridge loaded with the donor formulation was placed on the abdomen of each rat and connected to the power supply (Keithley Instruments, Cleveland, Ohio) for cathodal delivery. The counter electrode was placed around 3 cm away from the drug cartridge, and connected to the respective polarity of the power supply. The cartridge and the counter electrode were made sure to be in contact with the skin and a bandage was placed to prevent them from any further movement. Skin portion around the cartridge approximately 0.5 cm was marked for excision after the study to determine the lateral diffusion of the drug. Iontophoresis was conducted at a current density of 0.2 mA/cm^2 for 15 or 60 minutes. The donor cartridge was removed from the skin after iontophoresis and the skin was wiped with a moist kimwipe to remove any remaining drug on the skin. The skin was then tape stripped (30 strips) to remove the stratum corneum and the drug in the strips evaluated (with the first strip discarded for surface drug removal). The drug in the underlying skin was then extracted.
# [4] = cathodal 0.2 mA/cm2 for 15 minutes, FIG. 6B
# [5] = cathodal 0.2 mA/cm^2 for 60 minutes, FIG. 6A
# [6] = 3.5 mg/ml, pH 5.0, anodal iontophoresis 0.2 mA/cm^2 for 1 h
# [7] = 3.5 mg/ml, pH 5.0, passive delivery
smiles,measurement,setting,value
"C[C@@H]1C[C@H]2[C@@H]3CCC4=CC(=O)C=C[C@]4(C)[C@@]3(F)[C@@H](O)C[C@]2(C)[C@@]1(O)C(=O)COP(=O)(O)O [DEX, dexamethasone sodium phosphate]",solubility,"[1]; aqueous buffer, Phosphate buffer",70000 µg/mL
same,solubility,"[1]; aqueous with cosolvent or surfactant or cyclodextrin, 15% ethanol (95%), 20% PEG400, 20% glycerin, in phosphate buffer (w/w)",156000 µg/mL
same,solubility,"[1]; aqueous with cosolvent or surfactant or cyclodextrin, 15% ethanol (95%), 30% PEG400, 20% glycerin, in phosphate buffer (w/w)",197000 µg/mL
same,"permeation over time, 10 mg/mL","[2]; 10 mg/mL in phosphate buffer pH 7.4, cathodal 0.2 mA/cm^2 for 1 hr, 24 hrs, FIG. 4",lower permeation over time compared to the higher drug concentrations
same,"cumulative permeation over 24 hrs, iontophoresis","[2]; 25 mg/mL in phosphate buffer pH 7.4, cathodal 0.4 mA/cm^2 for 1 hr, sampled 24 hrs, FIG. 2",increased quite rapidly during the initial several hours and continued to increase up to 24 hrs
same,"cumulative permeation over 24 hrs, passive","[2]; 25 mg/mL in phosphate buffer pH 7.4, passive delivery (no current), FIG. 2",initially low but gradual increase
same,"permeation over time, 4 hr iontophoresis","[2]; 25 mg/mL, pH 7.4, cathodal 0.4 mA/cm^2 for 4 hr, FIG. 3",highest permeation
same,"cumulative permeation, cathodal vs anodal iontophoresis","[2]; 25 mg/mL, cathodal in phosphate buffer pH 7.4 vs anodal in citrate buffer pH 3.5, 0.4 mA/cm^2 for 2 hours, sampled for 24 hrs, FIG. 1",significant improvement in permeation compared to anodal iontophoresis
same,"permeation over time, 25 and 50 mg/mL","[2]; 25 and 50 mg/mL in phosphate buffer pH 7.4, cathodal 0.2 mA/cm^2 for 1 hr, 24 hrs, FIG. 4",similar
same,drug level in the skin over time after iontophoresis (depot),"[3]; 0.2 mA/cm2 for 15 minutes, measured 0, 24 and 48 hours after, FIG. 6C",decreased slowly over time and was detectable at 48 hrs after iontophoresis
same,"initial drug level in stratum corneum, iontophoresis 15 min",[3]; [4],13.63 ± 2.4 µg
same,"initial drug level in underlying skin, iontophoresis 15 min",[3]; [4],1.70 ± 1.70 µg
same,"amount in stratum corneum, iontophoresis 60 min",[3]; [5],23.70 ± 6.19 µg
same,"amount in underlying skin, iontophoresis 60 min",[3]; [5],2.18 ± 0.69 µg
same,"localization of drug in skin, passive","[3]; passive group, 60 minutes",all of the drug was localized in the stratum corneum layer
same,"total delivered into skin, iontophoresis","[3]; phosphate buffer pH 7.4, cathodal 0.2 mA/cm^2 for 60 minutes, immediately after, FIG. 6A",25.88 ± 5.91 µg
same,"total delivered into skin, passive","[3]; phosphate buffer pH 7.4, passive treatment 60 minutes, FIG. 6A",13.31 ± 2.69 µg
same,drug in peripheral skin areas outside the contact area (lateral diffusion),[3]; skin about 0.5 cm around the cartridge,No drug was detected
"CC1(C)O[C@@H]2C[C@H]3[C@@H]4CCC5=CC(=O)C=C[C@]5(C)[C@@]4(F)[C@@H](O)C[C@]3(C)[C@]2(C(=O)CO)O1 [TMCA, triamcinolone acetonide]","Solubility, Final conc","[1]; 15% cremophor, 25% ethanol, 25% PEG 400 (w/w)",4420 µg/mL
same,"Solubility, Final conc","[1]; 15% cremophor, 25% ethanol, 25% PEG 3350 (w/w)",1980 µg/mL
same,solubility,"[1]; aqueous with cosolvent or surfactant or cyclodextrin, 5% tween 80 (w/w)",120 µg/mL
same,solubility,"[1]; aqueous with cosolvent or surfactant or cyclodextrin, 15% cremophor (w/w)",480 µg/mL
same,solubility,"[1]; aqueous with cosolvent or surfactant or cyclodextrin, 15% cremophor, 25% ethanol (w/w)",1380 µg/mL
same,solubility,"[1]; aqueous with cosolvent or surfactant or cyclodextrin, 15% cremophor, 25% ethanol, 25% glycerin (w/w)",2430 µg/mL
same,solubility,"[1]; aqueous with cosolvent or surfactant or cyclodextrin, 15% cremophor, 50% PEG 400 (w/w)",1240 µg/mL
same,solubility,"[1]; aqueous with cosolvent or surfactant or cyclodextrin, 15% cremophor, 50% glycerin (w/w)",1180 µg/mL
same,solubility,"[1]; aqueous with cosolvent or surfactant or cyclodextrin, 25% PEG 400 (w/w)",70 µg/mL
same,solubility,"[1]; aqueous with cosolvent or surfactant or cyclodextrin, 25% PEG 3350 (w/w)",80 µg/mL
same,solubility,"[1]; aqueous with cosolvent or surfactant or cyclodextrin, 25% Propylene glycol (w/w)",60 µg/mL
same,solubility,"[1]; aqueous with cosolvent or surfactant or cyclodextrin, 25% ethanol (w/w)",230 µg/mL
same,solubility,"[1]; aqueous with cosolvent or surfactant or cyclodextrin, 25% glycerin (w/w)",30 µg/mL
same,levels in the receptor chamber,"[2]; 3.5 mg/ml in 15% cremophor RH40, 25% PEG 400, 25% ethanol, citrate buffer pH 5.0, with or without anodal iontophoresis 0.2 mA/cm^2 for 1 h",No detectable levels
same,"amount deposited in the underlying skin after tape stripping, iontophoresis",[3]; [6],1.15 ± 0.32 µg
same,"amount in the stratum corneum, iontophoresis",[3]; [6],16.43 ± 1.99 µg
same,"amount deposited in the underlying skin after tape stripping, passive",[3]; [7],0.34 ± 0.08 µg
same,"amount in the stratum corneum, passive",[3]; [7],19.66 ± 1.35 µg
